# Tests used:
# Type in all cases: in vivo
# [1] = test system: thrombin-induced retinal vascular hyperpermeability; test: Rat model of thrombin-induced retinal vascular hyperpermeability (vitreous protein concentration)
# [2] = test system: choroidal neovascularization; test: Krypton laser-induced rat choroidal neovascularization model (fluorescein fundus angiography); conditions: evaluated 7th day after photocoagulation
# Description: By using a laser-induced rat choroidal neovascularization model (Invest. Ophthalmol. Vis. Sci., 40(2), 459-466 (1999)), usefulness of the compounds of the present invention was evaluated.
# A rat was intramuscularly administered 1 ml/kg of a mixed solution (7:1) comprising a 5% (W/V) ketamine hydrochloride injection solution and a 2% xylazine hydrochloride injection solution to perform general anesthesia, and after a 0.5% (W/V) tropicamide-0.5% phenylephrine hydrochloride eye drop was dropped into eyes to perform mydriasis, photocoagulation was carried out by a krypton laser photocoagulation apparatus. The photocoagulation was carried out at the posterior part of eye ground, while avoiding thick retinal blood vessels, by focusing on the deep retina with eight spots per an eye in a scattered state (coagulation conditions: spot size 100 μm, output 100 mW, coagulation time 0.1 second). After the photocoagulation, the ocular fundus was photographed to confirm laser irradiated sites.
# Compound A was mixed with a 1% (W/V) methyl cellulose solution (prepared by dissolving methyl cellulose in purified water) so that it became 0.4, 1.2, 4 and 12 mg/ml, and an administration solution containing Compound A was orally administered twice a day for 7 days from the surgery day including the surgery day of the photocoagulation with a dose of 2, 6, 20 and 60 mg/kg. Incidentally, to the base administered group was similarly administered a 1% (W/V) methyl cellulose solution.
# At the 7th day after the photocoagulation, a rat was intramuscularly administered 1 ml/kg of a mixed solution (7:1) comprising a 5% (W/V) ketamine hydrochloride injection solution and a 2% xylazine hydrochloride injection solution to perform general anesthesia, and a 0.5% (W/V) tropicamide-0.5% phenylephrine hydrochloride eye drop was dropped into eyes to perform mydriasis, 0.1 ml of a 10% fluorescein solution was injected into a vein of penis to carry out fluorescein fundus angiography. A spot from which no leakage of fluorescence was admitted by the fluorescein fundus angiography was judged as negative (no neovascularization), and a spot from which leakage of fluorescence was admitted was judged as positive. In addition, when the photocoagulation portions from which a slight leakage of fluorescence was admitted were present two portions, it was judged as positive (neovascularization exists). Thereafter, according to Numerical formula 1, a rate of incidence of choroidal neovascularization (%) was calculated from a number of positive spot(s) to the eight spots to which the laser was irradiated, and a suppressing rate (%) of the evaluated drug was calculated in accordance with Numerical formula 2. Incidentally, a number of the samples of each administered group is 7 or 8. […]
# [3] = test system: TNFα-induced retinal vascular hyperpermeability; test: Rat model of TNFα-induced retinal vascular hyperpermeability, oral administration
# From the text: TNFα is a cytokine which has been reported to increase its expression in proliferative diabetic retinopathy or at the vitreous body of retinal vein occlusion (Eye 2006; 20: 1366-1369, Jpn. J. Ophthalmol. 2011; 55: 256-63), and in a streptozocin-induced diabetes model, it has been reported that it participates in onset and progress of diabetic retinopathy through permeability enhancement or histopathological alteration of retinal vessel (Mol. Vis. 2009; 15: 1418-1428). Thus, by using a rat model of TNFα-induced retinal vascular hyperpermeability, usefulness of Compound A, the diastereomer I of Compound A and the diastereomer II of Compound A were evaluated.
# A rat was intramuscularly administered 1 ml/kg of a mixed solution (7:1) comprising a 5% (W/V) ketamine hydrochloride injection solution and a 2% xylazine hydrochloride injection solution to perform general anesthesia, and a 0.5% (W/V) tropicamide-0.5% phenylephrine hydrochloride eye drop was dropped into eyes to perform mydriasis. Thereafter, 5 μL of TNFα (10 μg/ml) was injected into the vitreous body by using a 32G needle so as not to damage the crystalline lens and the retina. A rat of normal group was administered PBS (phosphate buffer) in place of the TNFα.
# Compound A was dissolved in a 1% (W/V) methyl cellulose solution (prepared by dissolving methyl cellulose in purified water) so that it became 2 and 20 mg/ml to prepare a Compound A solution. The Compound A solution was orally administered with a dose of 10 and 100 mg/kg at 30 minutes before, 6 and 20 hours after administration of TNFα in the vitreous body. The diastereomer I of Compound A and the diastereomer II of Compound A were also similarly prepared and administered. Incidentally, the base administered group was similarly administered a 1% (W/V) methyl cellulose solution.
# In addition, RS-504393 which is a CCR2 receptor antagonist was used those purchased from Tocris Bioscience Inc., and orally administered in the same manner with a dose of 3 and 30 mg/kg.
# After 24 hours from administration of TNFα in the vitreous body, the rat was euthanized by exsanguination, and then, the eyeballs of the rat were excised so as not to mix with a blood. After extraction of the eyeballs, the vitreous body was rapidly collected by making a tiny cut at around the optic papilla using a surgical scalpel. The collected vitreous body was optionally diluted by purified water, and the protein concentration was measured by the Bradford method. The protein concentration of the vitreous body thus measured was used as an index of the retinal vascular permeability. Thereafter, according to Numerical formula 4, a suppressing rate (%) of the evaluated drug against the retinal vascular hyperpermeability caused by TNFα was calculated. […]
# [4] = test system: TNFα-induced retinal vascular hyperpermeability; test: Rat model of TNFα-induced retinal vascular hyperpermeability, intravitreal administration; conditions: 100 μg/eye intravitreally immediately after intravitreal TNFα; vitreous protein at 24 h
# Description: To investigate an effectiveness of Compound A by topical administration, the effect of intravitreal administration of Compound A on a rat model of TNFα-induced retinal vascular hyperpermeability was investigated. A model was prepared in the same manner as in Pharmacological test 3. Compound A was dissolved in a mixed solution of dimethylsulfoxide and PLA0020 with a ratio of 4: 1 so that it became 40 mg/ml to prepare a solution of Compound A. Immediately after intravitreal administration of TNFα, the solution of Compound A was intravitreally administered with a dose of 100 μg/eyes. Incidentally, to the base administered group, a mixed solution of dimethylsulfoxide and PLA0020 with a ratio of 4:1 was similarly administered. After 24 hours from intravitreal administration of TNFα, the rat was euthanized by exsanguination, and then, the eyeballs of the rat were excised so as not to mix with a blood. […] The collected vitreous body was optionally diluted by purified water, and the protein concentration was measured by the Bradford method. The protein concentration of the vitreous body thus measured was used as an index of the retinal vascular permeability. Thereafter, according to Numerical formula 4, a suppressing rate (%) of the evaluated drug against the retinal vascular hyperpermeability caused by TNFα was calculated. […]
# [5] = 10 mg/kg intraperitoneally, vitreous protein 24 h after intravitreal thrombin
compound,measurement,setting,value
"O=C(/C=C/c1cc(F)cc(F)c1)N1CCC([C@@H](CO)N2CCC(c3c[nH]c4ncccc34)CC2)CC1 [Compound C, 2(S)-[1-[3-(3,5-difluorophenyl)-2(E)-propenoyl]piperidin-4-yl]-2-[4-(1H-pyrrolo[2,3-b]pyridin-3-yl)piperidin-1-yl]ethanol]",Retinal vascular permeability suppressing rate (%),[1]; [5],−1%
"C[N+](C)(Cc1ccc(NC(=O)c2ccc(Cl)c(Cl)c2)cc1)C1CCOCC1.[Cl-] [Compound B, N-[4-(3,4-dichlorobenzamido)benzyl]-N,N-dimethyl-N-(tetrahydropyran-4-yl)ammonium chloride]",Retinal vascular permeability suppressing rate (%),[1]; [5],−13%
COC1COCCC1N[C@@H]1CC[C@@](C(=O)N2CCc3ncc(C(F)(F)F)cc3C2)(C(C)C)C1.O=C(O)CCC(=O)O (stereo partly drawn) [Compound A],Suppressing rate (%) of incidence of choroidal neovascularization,[2]; 2 mg/kg orally twice a day for 7 days,32.8%
same,Suppressing rate (%) of incidence of choroidal neovascularization,[2]; 6 mg/kg orally twice a day for 7 days,39.5%
same,Suppressing rate (%) of incidence of choroidal neovascularization,[2]; 20 mg/kg orally twice a day for 7 days,52.9%
same,Suppressing rate (%) of incidence of choroidal neovascularization,[2]; 60 mg/kg orally twice a day for 7 days,62.7%
same,Retinal vascular permeability suppressing rate (%),"[1]; 6 mg/kg orally at 30 min before, 6 and 20 h after intravitreal thrombin, vitreous protein at 24 h",15%
same,Retinal vascular permeability suppressing rate (%),"[3]; 10 mg/kg orally at 30 min before, 6 and 20 h after intravitreal TNFα, vitreous protein at 24 h",63%
same,Retinal vascular permeability suppressing rate (%),"[3]; 100 mg/kg orally at 30 min before, 6 and 20 h after intravitreal TNFα, vitreous protein at 24 h",88%
same,Retinal vascular permeability suppressing rate (%),[4],61%
"Cc1ccc2c(c1)C1(CCN(CCc3nc(-c4ccccc4)oc3C)CC1)OC(=O)N2 [RS-504393, reference compound]",Retinal vascular permeability suppressing rate (%),"[3]; 3 mg/kg orally, vitreous protein 24 h after intravitreal TNFα",18%
same,Retinal vascular permeability suppressing rate (%),"[3]; 30 mg/kg orally, vitreous protein 24 h after intravitreal TNFα",−13%

# — patent publication US20160008333A1, “PROPHYLACTIC OR THERAPEUTIC AGENT FOR POSTERIOR OCULAR DISEASE CONTAINING TETRAHYDROPYRANYLAMINOCYCLOPENTYLCARBONYLTETRAHYDROPYRIDOPYRIDINE DERIVATIVE AS EFFECTIVE INGREDIENT” (SANTEN PHARMACEUTICAL CO., LTD., priority 2013, published 2016)
